Tested on: Calf thymus DNA
Assay: Displacement of ethidium bromide from calf thymus DNA
Format: nucleic-acid assay
Settings: Bos taurus

| logC50 | logKA | Compound |
| --- | --- | --- |
| -2.83 | 4.93 | CC1CCN(CCC(=O)Nc2ccccc2-c2nc3ccccc3[nH]2)CC1 |
| -2.86 | 4.96 | CN1CCN(CCC(=O)Nc2ccccc2-c2nc3ccccc3[nH]2)CC1 |
| -2.66 | 4.76 | CC1CCCCN1CCC(=O)Nc1ccccc1-c1nc2ccccc2[nH]1 (configuration not stated) |
| -2.8 | 4.9 | O=C(CCN1CCCCC1)Nc1ccccc1-c1nc2ccccc2[nH]1 |
| -2.92 | 5.02 | O=C(CCN1CCOCC1)Nc1ccccc1-c1nc2ccccc2[nH]1 |
| -2.58 | 4.68 | O=C(CN1CCOCC1)Nc1ccccc1-c1nc2ccccc2[nH]1 |

Continued, compound first:

| Compound | logC50 | logKA |
| --- | --- | --- |
| CN1CCN(CC(=O)Nc2ccccc2-c2nc3ccccc3[nH]2)CC1 | -2.32 | 4.42 |
| CC1CCN(CC(=O)Nc2ccccc2-c2nc3ccccc3[nH]2)CC1 | -2.84 | 4.94 |
| CN1CCN(Cc2nc3ccccc3c3nc4ccccc4n23)CC1 | -3.72 | 5.82 |
| CC1CCN(CCc2nc3ccccc3c3nc4ccccc4n23)CC1 | -4.23 | 6.33 |
| CC1CCCCN1CCc1nc2ccccc2c2nc3ccccc3n12 (configuration not stated) | -4.17 | 6.27 |
| CC1CCN(Cc2nc3ccccc3c3nc4ccccc4n23)CC1 | -3.83 | 5.93 |
| c1ccc2c(c1)nc(CN1CCCCC1)n1c3ccccc3nc21 | -3.84 | 5.94 |
| CCN(CC)CCOc1ccc2c(c1)C(=O)c1cc(OCCN(CC)CC)ccc1-2 | -4.2 | 6.3 |
| CC1CCCCN1CC(=O)Nc1ccccc1-c1nc2ccccc2[nH]1 (configuration not stated) | -2.66 | 4.76 |
| CN1CCN(CCc2nc3ccccc3c3nc4ccccc4n23)CC1 | -4.18 | 6.28 |
| c1ccc2c(c1)nc(CN1CCOCC1)n1c3ccccc3nc21 | -3.44 | 5.54 |
| CC1CCCCN1Cc1nc2ccccc2c2nc3ccccc3n12 (configuration not stated) | -3.65 | 5.75 |
| c1ccc2c(c1)nc(CCN1CCOCC1)n1c3ccccc3nc21 | -4.12 | 6.22 |
| O=C(CN1CCCCC1)Nc1ccccc1-c1nc2ccccc2[nH]1 | -2.65 | 4.75 |
| c1ccc2c(c1)nc(CCN1CCCCC1)n1c3ccccc3nc21 | -4.03 | 6.13 |

— ChEMBL document CHEMBL1153003, “Synthesis and affinity to DNA of phenylbenzoimidazoles and benzoimidazo[1,2-c]quinazolines” (Eur J Med Chem, 2009)
